Laboratory results as given in paper PMC6332508, “A Promising PET Tracer for Imaging of α7 Nicotinic Acetylcholine Receptors in the Brain: Design, Synthesis, and in Vivo Evaluation of a Dibenzothiophene-Based Radioligand” (Molecules, 2015).
Several values for one entry are separate records, joined by “and”; a condition that tells them apart may be missing. Equal values may be shown once. Read-outs that look alike come from different tables or passages of the source.

Tests used:
human α7 nAChR = molecular target: T1, human α7 nAChR (Homo sapiens, UniProt P36544); test: Radioligand displacement at human α7 nAChR, [3H]methyllycaconitine, SH-SY5Y cells; type: binding; settings: for Selectivity (Ki ratio) α7/α3β4: Ki hα3β4 divided by Ki hα7; for Selectivity (Ki ratio) α7/α4β2: Ki hα4β2 divided by Ki hα7
T1 construct: expressed in transfected cells; host or cells: SH-SY5Y
T1 sequence (P36544 23-502): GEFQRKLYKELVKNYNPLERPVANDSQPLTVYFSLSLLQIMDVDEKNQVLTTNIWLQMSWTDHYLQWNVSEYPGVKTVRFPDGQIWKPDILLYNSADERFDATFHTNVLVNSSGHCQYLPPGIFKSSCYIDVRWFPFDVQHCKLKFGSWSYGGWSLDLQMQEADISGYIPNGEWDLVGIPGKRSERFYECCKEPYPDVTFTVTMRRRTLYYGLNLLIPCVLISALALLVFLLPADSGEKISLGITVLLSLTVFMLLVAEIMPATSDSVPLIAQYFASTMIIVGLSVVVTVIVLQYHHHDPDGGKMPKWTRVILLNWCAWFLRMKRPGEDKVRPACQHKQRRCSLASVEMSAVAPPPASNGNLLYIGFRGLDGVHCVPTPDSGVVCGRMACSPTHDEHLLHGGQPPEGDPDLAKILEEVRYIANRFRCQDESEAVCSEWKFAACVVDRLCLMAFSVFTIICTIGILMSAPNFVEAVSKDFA

human α4β2 nAChR = molecular target: T2, human α4β2 nAChR (Homo sapiens, UniProt P17787+P43681); test: Radioligand displacement at human α4β2 nAChR, [3H]epibatidine, HEK293 cells; type: binding
T2 construct: expressed in transfected cells; host or cells: HEK293
T2 sequence (P43681 29-627 limits assumed): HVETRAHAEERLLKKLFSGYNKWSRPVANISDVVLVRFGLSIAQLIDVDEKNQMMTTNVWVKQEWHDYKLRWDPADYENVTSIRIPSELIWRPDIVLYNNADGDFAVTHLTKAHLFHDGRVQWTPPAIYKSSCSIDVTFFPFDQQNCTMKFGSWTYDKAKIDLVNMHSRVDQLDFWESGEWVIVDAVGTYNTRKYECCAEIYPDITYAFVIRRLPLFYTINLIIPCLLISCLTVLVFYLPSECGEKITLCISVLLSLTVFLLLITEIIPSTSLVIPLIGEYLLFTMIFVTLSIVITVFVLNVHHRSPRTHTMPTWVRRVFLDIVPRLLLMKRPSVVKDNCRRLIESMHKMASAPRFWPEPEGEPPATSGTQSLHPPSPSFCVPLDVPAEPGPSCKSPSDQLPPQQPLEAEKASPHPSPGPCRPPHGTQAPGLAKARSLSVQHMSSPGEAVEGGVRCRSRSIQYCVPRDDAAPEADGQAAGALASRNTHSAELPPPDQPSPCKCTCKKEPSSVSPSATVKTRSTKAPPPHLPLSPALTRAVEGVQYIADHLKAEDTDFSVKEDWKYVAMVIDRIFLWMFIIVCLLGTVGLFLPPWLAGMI
T2 sequence (P17787 26-502): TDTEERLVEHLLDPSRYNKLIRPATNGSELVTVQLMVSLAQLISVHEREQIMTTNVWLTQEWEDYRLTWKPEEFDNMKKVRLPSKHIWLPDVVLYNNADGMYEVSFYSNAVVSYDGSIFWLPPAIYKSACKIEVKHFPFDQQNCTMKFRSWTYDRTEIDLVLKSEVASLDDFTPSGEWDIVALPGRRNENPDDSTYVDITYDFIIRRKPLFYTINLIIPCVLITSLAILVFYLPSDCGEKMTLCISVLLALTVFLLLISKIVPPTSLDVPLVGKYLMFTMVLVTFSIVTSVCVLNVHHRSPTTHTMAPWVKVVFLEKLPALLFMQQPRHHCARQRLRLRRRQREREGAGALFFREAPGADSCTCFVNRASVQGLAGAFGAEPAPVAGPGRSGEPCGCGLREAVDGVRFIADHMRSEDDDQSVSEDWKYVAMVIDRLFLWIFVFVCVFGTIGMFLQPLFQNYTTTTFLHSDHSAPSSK
Method: (§1) The affinity of the test compounds for human α4β2 and α3β4 nAChR was determined as described above. In brief, HEK293 cells stably expressing human α4β2 or α3β4 nAChR [66] were cultured. […] Nonspecific binding was determined in the presence of 300 μM (−)-nicotine tartrate. Incubation of the samples, separation of free from receptor-bound radioligand, and data evaluation were performed as described above.

human α3β4 nAChR = molecular target: T3, human α3β4 nAChR (Homo sapiens, UniProt P30926+P32297); test: Radioligand displacement at human α3β4 nAChR, [3H]epibatidine, HEK293 cells; type: binding
T3 construct: expressed in transfected cells; host or cells: HEK293
T3 sequence (P32297 32-505): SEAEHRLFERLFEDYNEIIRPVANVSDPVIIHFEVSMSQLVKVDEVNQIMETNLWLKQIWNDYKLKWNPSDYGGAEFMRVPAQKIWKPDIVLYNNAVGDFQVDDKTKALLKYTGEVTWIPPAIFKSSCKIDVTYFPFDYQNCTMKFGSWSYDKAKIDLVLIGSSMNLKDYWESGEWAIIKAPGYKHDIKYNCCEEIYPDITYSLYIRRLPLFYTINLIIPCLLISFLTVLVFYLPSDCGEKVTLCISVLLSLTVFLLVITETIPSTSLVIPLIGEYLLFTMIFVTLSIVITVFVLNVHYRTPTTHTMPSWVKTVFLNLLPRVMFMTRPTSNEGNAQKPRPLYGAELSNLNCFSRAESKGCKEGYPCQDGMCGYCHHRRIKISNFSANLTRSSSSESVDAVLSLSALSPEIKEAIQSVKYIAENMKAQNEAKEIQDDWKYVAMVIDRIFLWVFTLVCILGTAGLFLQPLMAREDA
T3 sequence (P30926 22-498): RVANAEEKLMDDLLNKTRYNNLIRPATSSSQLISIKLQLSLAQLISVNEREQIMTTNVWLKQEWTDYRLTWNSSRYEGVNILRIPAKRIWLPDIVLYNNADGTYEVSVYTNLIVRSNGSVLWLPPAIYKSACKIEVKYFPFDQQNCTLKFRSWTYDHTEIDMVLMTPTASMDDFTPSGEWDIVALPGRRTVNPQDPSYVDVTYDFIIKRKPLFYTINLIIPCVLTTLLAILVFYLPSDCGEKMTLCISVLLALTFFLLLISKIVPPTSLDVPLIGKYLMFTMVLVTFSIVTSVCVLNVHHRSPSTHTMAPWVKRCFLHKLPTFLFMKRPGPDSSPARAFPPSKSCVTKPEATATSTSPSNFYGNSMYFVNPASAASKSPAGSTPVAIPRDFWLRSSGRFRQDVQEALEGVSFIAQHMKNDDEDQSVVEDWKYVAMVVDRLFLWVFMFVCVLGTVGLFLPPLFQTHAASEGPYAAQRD
Method: as §1

rat α6β2* nAChR = rat α6β2* nAChR (Rattus norvegicus, UniProt P12390+P43143); test: [3H]epibatidine binding to antibody-immobilized native rat α6β2* nAChR from striatum; settings: read-out: Affinity (Ki in nM) rα6β2*, immunoimmobilization with anti-rα6 antibody, [3H]epibatidine 0.1 nM
Sequence of rat α6β2* nAChR (P43143 31-493): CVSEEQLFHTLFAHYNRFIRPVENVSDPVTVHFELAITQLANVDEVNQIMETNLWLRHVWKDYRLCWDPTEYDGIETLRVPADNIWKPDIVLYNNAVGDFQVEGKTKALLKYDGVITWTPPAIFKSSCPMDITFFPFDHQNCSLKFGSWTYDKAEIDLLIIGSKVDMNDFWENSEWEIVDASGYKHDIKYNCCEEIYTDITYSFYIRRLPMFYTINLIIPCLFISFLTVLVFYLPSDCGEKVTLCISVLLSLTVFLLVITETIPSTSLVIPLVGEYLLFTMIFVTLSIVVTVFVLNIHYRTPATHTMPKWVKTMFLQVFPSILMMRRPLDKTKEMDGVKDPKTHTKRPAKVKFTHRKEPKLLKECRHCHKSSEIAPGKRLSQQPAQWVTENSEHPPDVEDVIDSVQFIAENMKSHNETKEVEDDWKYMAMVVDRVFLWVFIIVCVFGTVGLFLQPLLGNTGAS
Sequence of rat α6β2* nAChR (P12391 31-464, further chain): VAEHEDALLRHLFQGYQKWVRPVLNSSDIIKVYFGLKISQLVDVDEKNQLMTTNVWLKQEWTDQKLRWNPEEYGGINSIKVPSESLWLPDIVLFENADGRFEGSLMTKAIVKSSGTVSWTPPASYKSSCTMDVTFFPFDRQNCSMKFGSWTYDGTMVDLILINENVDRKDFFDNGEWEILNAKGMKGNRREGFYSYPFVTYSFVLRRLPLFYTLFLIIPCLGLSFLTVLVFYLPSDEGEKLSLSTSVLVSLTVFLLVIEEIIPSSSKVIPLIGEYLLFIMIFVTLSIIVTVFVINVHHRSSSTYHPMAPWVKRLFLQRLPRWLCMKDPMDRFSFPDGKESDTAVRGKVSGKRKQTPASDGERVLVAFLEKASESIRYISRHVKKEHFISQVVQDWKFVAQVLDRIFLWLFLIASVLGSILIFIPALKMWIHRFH
Sequence of rat α6β2* nAChR (P12390 25-500): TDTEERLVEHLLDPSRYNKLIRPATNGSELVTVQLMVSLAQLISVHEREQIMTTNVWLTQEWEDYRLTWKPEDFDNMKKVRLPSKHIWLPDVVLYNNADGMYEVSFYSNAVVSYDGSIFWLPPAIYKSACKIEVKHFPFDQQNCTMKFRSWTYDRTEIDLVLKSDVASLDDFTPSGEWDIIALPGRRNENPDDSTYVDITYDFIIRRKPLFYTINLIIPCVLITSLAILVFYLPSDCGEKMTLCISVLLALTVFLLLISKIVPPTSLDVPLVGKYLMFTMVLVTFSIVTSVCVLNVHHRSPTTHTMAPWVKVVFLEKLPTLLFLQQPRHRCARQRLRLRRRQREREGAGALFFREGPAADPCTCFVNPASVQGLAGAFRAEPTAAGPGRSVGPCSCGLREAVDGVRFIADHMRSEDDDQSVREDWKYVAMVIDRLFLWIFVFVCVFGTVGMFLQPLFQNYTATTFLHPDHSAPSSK
Method: The specificity of the anti-α6 antibody was tested as described. The receptors were prepared and immobilized as previously described by the subunit-specific antibody. […] Incubations were performed in a buffer containing 50 mM Tris-HCl, pH 7, 150 mM NaCl, 5 mM KCl, 1 mM MgCl2, 2.5 mM CaCl2, 2 mg∙mL^−1 BSA, and 0.05% Tween 20. Specific ligand binding was defined as total binding minus the binding in the presence of 100 nM (±)-epibatidine dihydrochloride hydrate.
The experimental data obtained from the binding experiments were analyzed by means of a non-linear least square procedure using the LIGAND program. The Ki values of the test compounds were also determined by means of the LIGAND program by simultaneously fitting the data obtained from three to five independent saturation and competition binding experiments.

human 5-HT3 receptor = molecular target: T4, human 5-HT3 receptor (Homo sapiens, UniProt P46098); test: Radioligand binding at human 5-HT3 receptor, [3H]GR65630 (Eurofins Panlabs); settings: read-out: 5-HT3 percentage of inhibition
T4 construct: host or cells: HEK-293
T4 sequence (P46098 24-478): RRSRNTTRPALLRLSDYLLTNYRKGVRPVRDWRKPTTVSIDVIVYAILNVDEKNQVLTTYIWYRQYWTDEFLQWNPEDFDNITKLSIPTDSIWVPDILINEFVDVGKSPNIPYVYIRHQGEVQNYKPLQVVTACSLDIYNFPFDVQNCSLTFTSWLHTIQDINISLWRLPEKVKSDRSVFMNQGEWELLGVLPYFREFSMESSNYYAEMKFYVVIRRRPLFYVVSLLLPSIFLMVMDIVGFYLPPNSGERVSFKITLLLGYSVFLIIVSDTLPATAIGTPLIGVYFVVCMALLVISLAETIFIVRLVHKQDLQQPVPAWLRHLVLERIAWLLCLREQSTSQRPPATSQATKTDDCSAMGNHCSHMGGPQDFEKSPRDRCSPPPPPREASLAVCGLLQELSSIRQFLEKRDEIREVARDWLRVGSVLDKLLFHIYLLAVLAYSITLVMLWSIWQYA

α7 nAChR [1] = settings: [125I]α-bungarotoxin labelled rat cortical membranes; cited from earlier work
α3β4 nAChR = molecular target: α3β4 nAChR; set-up: method as in PMID 24050653; settings: rat receptor subtype; cited from earlier work
α4β2 nAChR = settings: cited from earlier work
α7 nAChR [2] = molecular target: T5, α7 nAChR (Macaca mulatta, UniProt Q866A2); test: Comparative PET study in a rhesus monkey; type: in vivo, rhesus monkey (Macaca mulatta)
T5 construct: from tissue; host or cells: brain of a living rhesus monkey
T5 sequence (Q866A2 23-502): as the sequence (P36544 23-502) above, with N171S, R186K, V373M, V376A counted along it
Method: One male rhesus monkey (Macaca mulatta, 6 years old, body weight = 10 kg) underwent two PET imaging sessions with [^18F]10a and [^18F]10b, respectively. The scans were conducted 19 days apart. The monkey was initially sedated by intramuscular ketamine at 10 mg∙kg^−1 at ~2 h before the PET scan and anesthetized by 1.5%–3% isoflurane throughout the imaging session. PET scan was performed using a FOCUS-220 PET scanner (Siemens Preclinical Solutions, Knoxville, TN, USA). After a transmission scan, 167 MBq of [^18F]10a (specific activity of 362 GBq∙μmol^−1) or 185 MBq of [^18F]10b (specific activity of 159 GBq·μmol^−1) were administered intravenously. Emission data were acquired in list mode for 240 min. Raw list-mode PET data was histogrammed (frames of 6 × 30 s; 3 × 1 min; 2 × 2 min; 46 × 5 min to scan termination) and reconstructed with 2D filtered back projection, using a 0.15 cm^−1 Shepp filter and including corrections for scanner normalization, detector dead time, randoms, and radiation scatter and attenuation. The PET images were then registered to MR images, acquired with a Siemens 3 T Trio scanner, with a 6-parameter rigid body registration. The MR native space was then normalized using nonlinear affine registration to a high-resolution rhesus monkey atlas using BioImage Suite 3.01 (http://www.bioimagesuite.org/index.html). Time-activity curves were extracted by mapping atlas-defined regions to PET native space using the optimal transformation matrices calculated in the registration and normalization steps. Regions extracted included amygdala, caudate, cerebellum, cingulate, cortical regions (frontal, occipital, and temporal cortex), hippocampus, putamen, thalamus, and pons.

[3] = Affinity (Ki in nM) hα3β4, stably transfected HEK-293 cells, [3H]epibatidine
[4] = stably transfected HEK-293 cells, [3H]epibatidine, read-out: Affinity (Ki in nM) hα4β2
[5] = 0.1 μM concentration of test compound, [3H]GR65630 binding
[6] = stably transfected SH-SY5Y cells, [3H]methyllycaconitine, read-out: Affinity (Ki in nM) hα7
[7] = stably transfected HEK-293 cells, [3H]epibatidine, read-out: Affinity (Ki in nM) hα3β4

| Compound | melting point | Selectivity (Ki ratio) α7/α3β4 (human α7 nAChR) | Selectivity (Ki ratio) α7/α4β2 (human α7 nAChR) | Ki (human α3β4 nAChR; [3]) | Ki (rat α6β2* nAChR) [nM] | Ki (human α4β2 nAChR; [4]) [nM] | inhibition at 0.1 µM (human 5-HT3 receptor; [5]) [%] | Ki (human α7 nAChR; [6]) [nM] | also measured |
| --- | --- | --- | --- | --- | --- | --- | --- | --- | --- |
| O=[N+]([O-])c1ccc2c(c1)-c1ccc(N3CCN4CCC3CC4)cc1S2(=O)=O | 291 to 294 °C (dec.) | – | – | – | – | – | – | – | – |
| O=S1(=O)c2ccccc2-c2ccc(N3CCN4CCC3CC4)cc21 [Compound 10] | 238.5 to 240 °C (dec.) | 97 | 623 | 49.6 ± 14.7 nM | 517 ± 186 | – | – | – | Ki (human α7 nAChR): 0.51 ± 0.32 nM; Ki (human α4β2 nAChR): 318 ± 43.3 nM; inhibition at 0.1 µM (human 5-HT3 receptor): 35% |
| O=S1(=O)c2cc(N3CCN4CCC3CC4)ccc2-c2cccc(F)c21 [Compound 10b, 3-(1,4-Diazabicyclo[3.2.2]nonan-4-yl)-6-fluorodibenzo[b,d]thiophene 5,5-dioxide] | – | – | – | 43 nM and 42.3 nM | 435 ± 152 | 211 ± 108 | 42 | – | Ki (α7 nAChR [1]): 0.4 nM; Ki (α3β4 nAChR): 709 nM |
| O=S1(=O)c2ccccc2-c2cc(F)c(N3CCN4CCC3CC4)cc21 [Compound 10c, 3-(1,4-Diazabicyclo[3.2.2]nonan-4-yl)-2-fluorodibenzo[b,d]thiophene 5,5-dioxide] | 305 to 309 °C (dec.) | 33 | 59 | – | 1390 ± 340 | – | 26 | 8.53 ± 1.74 | fold lower affinity at the α7 subtype (human α7 nAChR; relative to 10a and 10b): about 10 fold; Ki (human α4β2 nAChR): 507 ± 212 nM; Ki (human α3β4 nAChR): 279 ± 24.4 nM |
| CN1C2CCCC1CN(c1ccc3c(c1)S(=O)(=O)c1ccc(F)cc1-3)C2 [Compound 12a] | 214 to 217 °C (dec.) | 3 | 5 | 96 ± 1.48 nM | 1180 ± 360 | 141 ± 11.7 | 10 | 30.9 ± 8.72 | – |
| CN1C2CCCC1CN(c1ccc3c(c1)S(=O)(=O)c1c(F)cccc1-3)C2 [Compound 12b, 6-Fluoro-3-(9-methyl-3,9-diazabicyclo[3.3.1]nonan-3-yl)dibenzo[b,d]thiophene 5,5-dioxide] | 264 to 272 °C (dec.) | 1 | 3 | 94.8 ± 6.48 nM | 1190 ± 230 | 301 ± 148 | 11 | 105 ± 23.9 | – |
| CN1C2CCC1CN(c1ccc3c(c1)S(=O)(=O)c1c(F)cccc1-3)C2 [Compound 13b] | 260.5 to 262.5 °C (dec.) | 5 | 10 | – | 2260 ± 540 | 426 ± 197 | 10 | 40.9 ± 7.77 | Ki (human α3β4 nAChR; [7]): 224 ± 51.7 nM |
| CN1CC2CCC(C1)N2c1ccc2c(c1)S(=O)(=O)c1c(F)cccc1-2 [Compound 14b] | 254.5 to 256 °C (dec.) | >500 | >400 | – | 1450 ± 370 | > 4000 | 4 | 9.26 ± 2.23 | Ki (human α3β4 nAChR; [7]): > 5000 nM |
| O=S1(=O)c2cc(N3CCN4CCC3CC4)ccc2-c2cccc(F)c21 [[^18F]10b, reference compound] | – | – | – | – | – | – | – | – | Ki (α4β2 nAChR): 562 nM |
| O=S1(=O)c2cc(N3CCN4CCC3CC4)ccc2-c2cccc([18F])c21 [[^18F]10b, reference compound] | – | – | – | – | – | – | – | – | total volume of distribution VT (α7 nAChR [2]; cerebellum): 26.8 mL∙cm^−3; total volume of distribution VT (α7 nAChR [2]; thalamus): 46.7 mL∙cm^−3 |
| Fc1ccc(-c2nnc(N3CCN4CCC3CC4)o2)cc1 [[^18F]NS10743] | – | – | – | – | – | – | – | – | Ki (α4β2 nAChR): > 10000 nM |
